Assay results taken from patent US20120129927A1, “New Anthraquinone Derivatives” (SEALIFE PHARMA GMBH, priority 2009, published 2012).
In brackets after ≈: the same amount, converted by molar mass. Entries after “also recorded” stand apart in the source; their conditions may differ. Where two headings read alike, the source gives them in different places.

Assays:
bacteria and fungi = conditions: Aly et al., Phytochemistry 69; cited from earlier work
[1] = tested on: Gram-positive bacteria and the Gram-negative species Pseudomonas aeruginosa; conditions: Okamura et al., Phytochemistry 42(1); cited from earlier work
[2] = tested on: Enterococcus faecalis or faecium; assay: MIC test (titration method, EUCAST); format: cell-based; conditions: for MIC: read-out: MHK (MIC) EK
Method: (§1) The activities of the novel compounds were tested in two different screening systems. The antibacterial and antifungal activities were examined by means of an MIC test, MIC standing for “minimal inhibitory concentration” and referring to the lowest concentration of a substance at which no proliferation of microorganisms can be observed with the naked eye. The MIC is determined by means of a so called titration method in which the substance is diluted and, subsequently, the pathogen is added to it.
(§2) Usually, this method is applied in order to determine the concentration of an antibiotic which only just inhibits the growth of a bacterial strain. The MIC is indicated in micrograms per milliliter (μg/ml), and the dilutions are conventionally carried out in log 2 steps. Herein, a starting concentration of 250 μg/ml was diluted several times, to the double volume in each case, resulting in test concentrations of 250 μg/ml, 125 μg/ml, 62.5 μg/ml, 31.2 μg/ml, 15.6 μg/ml, 7.8 μg/ml, etc. Thus, lower values indicate a better activity as an anti-infective.
(§3) The tests were carried out according to the standards of EUCAST (European Committee for Antimicrobial Susceptibility Testing) and according to the AFST-protocol (“Antifungal Susceptibility Testing” protocol) of the European Society of Clinical Microbiology and Infectious Diseases (ESCMID).
(§4) In the following Table 3, the test results indicating the anti-infective action of 3-O-acetyl altersolanol M, alterporriol I and J as well as of some known and structurally similar comparative substances against some multi-resistant bacteria and fungi (all of which were kindly placed at our disposal by Prof Georgopulos from the Medical University of Vienna). The data constituting averages of the values obtained in multiple test runs.

Staphylococcus epidermis = assay: MIC test (titration method, EUCAST); format: cell-based; conditions: for MIC: read-out: MHK (MIC) SE
Method: as §1, §2, §3, §4

Streptococcus pneumoniae = assay: MIC test (titration method, EUCAST); format: cell-based; conditions: for MIC: read-out: MHK (MIC) STR
Method: as §1, §2, §3, §4

[3] = tested on: methicillin-resistant Staphylococcus aureus; assay: MIC test (titration method, EUCAST); format: cell-based; conditions: for MIC: MRSA, read-out: MHK (MIC) MRSA
Method: as §1, §2, §3, §4

[4] = tested on: Aspergillus fumigatus or faecalis; assay: MIC test (AFST protocol); format: cell-based; conditions: multi-resistant Aspergillus fumigatus or faecalis, averages of multiple test runs; for MIC: read-out: MHK (MIC) ASP
Method: as §1, §2, §3, §4

melanoma cells [5] = assay: Alamar Blue assay using melanoma cells; format: cell-based; conditions: for inhibition at 10 µg/mL: read-out: inhibition / reduction of the number of melanoma cells
Method: In this test, the dye resazurin is used as an indicator for measuring the cytotoxicity of substances. […] Depending on the degree of their toxicity, cytotoxic agents decelerate or stop this reduction.
In the course of this experiment, melanoma cells were treated with several concentrations of 3-O-acetyl altersolanol M, i.e. with 1, 10, and 50 μg/ml, with altersolanol K and alterporriol F as comparative substances, as well as with alterporriol I+J, i.e. compound (5) of the present invention, at respective concentrations of 10 μg/ml, and incubated for 48 h, whereafter the samples' fluorescence was determined spectrophotometrically at 570/600 nm, the fluorescence being proportional to the number of surviving cells in the samples.
The measurement results were related to the fluorescence of a blank, to which no cytotoxic agent had been added, and are shown in a graph in FIG. 1.

[6] = Yagi et al., Phytochemistry 34(4); cited from earlier work
E. coli = assay: MIC test (titration method, EUCAST); format: cell-based; conditions: Escherichia coli, read-out: MHK (MIC) EC
Method: as §1, §2, §3, §4

Klebsiella sp. = assay: MIC test (titration method, EUCAST); format: cell-based; conditions: multi-resistant Klebsiella sp., averages of multiple test runs
Method: as §1, §2, §3, §4

Pseudomonas aeruginosa = assay: MIC test (titration method, EUCAST); format: cell-based; conditions: multi-resistant Pseudomonas aeruginosa, averages of multiple test runs
Method: as §1, §2, §3, §4

[7] = Electrical Cell Substrate Impedance Sensing (ECIS) test; format: cell-based; conditions: results not indicated, comparison only
melanoma cells [8] = assay: Three-dimensional tumor test in matrix gel; format: cell-based; conditions: 30, 50 or 3,000 μg/ml, 37° C.
Method: In addition to the above two-dimensional test, the cytotoxic action of 3-O-acetyl altersolanol M was also examined in an innovative three-dimensional test system. In this test, small tumors are grown in a matrix gel, in which the activity of an anti-cancer agent may be directly tested by adding said agent at different concentrations. A blank, i.e. melanoma cells without any cytotoxic agent, and an equal amount of melanoma cells together with 30, 50 or 3,000 μg/ml of 3-O-acetyl altersolanol M were incubated in the matrix gel for 120 hours at 37° C.

[9] = multi-resistant Enterococcus faecalis or faecium, averages of multiple test runs
[10] = multi-resistant Staphylococcus epidermis, averages of multiple test runs
[11] = multi-resistant Streptococcus pneumoniae, averages of multiple test runs
[12] = methicillin-resistant Staphylococcus aureus, averages of multiple test runs
[13] = 10 μg/ml, 48 h, relative to blank
[14] = multi-resistant E. coli, averages of multiple test runs

For `COc1cc(O)c2c(c1-c1c(OC)cc(O)c3c1C(=O)C1=C(C3=O)[C@H](O)[C@@H](O)[C@@](C)(O)[C@@H]1O)C(=O)C1=C(C2=O)[C@H](O)[C@@H](O)[C@@](C)(O)[C@@H]1O` [alterporriol D], the “activity against bacteria and fungi” value (bacteria and fungi) is listed as “do not show any activity against bacteria and fungi”.
For `COc1cc(O)c2c(c1)[C@H](O)[C@H]1C[C@](C)(O)[C@H](O)C[C@@H]1C2=O` [tetrahydroaltersolanol B], the “effect against Gram-positive bacteria and Pseudomonas aeruginosa” value [1] is listed as “do not disclose any effect”.
For `COc1cc(O)c2c(c1)[C@H](O)[C@@H]1[C@@H](C2=O)[C@H](O)[C@@H](O)[C@@](C)(O)[C@@H]1O` [Ampelanol], the “activity against bacteria and fungi” value (bacteria and fungi) is given as “do not show any activity against bacteria and fungi”.
For `COc1cc(O)c2c(c1-c1c(OC)cc(O)c3c1C(=O)c1cc(C)c(O)c(O)c1C3=O)C(=O)C1=C(C2=O)[C@H](O)[C@@H](O)[C@@](C)(O)[C@H]1O` [Example 2, 8-(4,5,6-trihydroxy-7-methyl-2-methoxy-9,10-dioxo-9H,10H-anthracen-1-yl)-(1S,2S,3R,4S)-1,2,3,4,5-pentahydroxy-7-methoxy-2-methyl-1,2,3,4-tetrahydro-9H,10H-anthracene-9,10-dione], the MIC [2, 9] was 7.8 µg/mL (≈ 12.3 µM), the MIC (Staphylococcus epidermis; [10]) was 7.8 µg/mL (≈ 12.3 µM) and the MIC (Streptococcus pneumoniae; [11]) was 7.8 µg/mL (≈ 12.3 µM). For the same compound, the MIC [3, 12] was 7.8 µg/mL (≈ 12.3 µM), the MIC [4] was 125 µg/mL (≈ 197 µM) and the “result compared with comparative substances (in words)” value (melanoma cells [5]; 10 μg/ml, 48 h) was “slightly better results than the two comparative examples”. The inhibition at 10 µg/mL (melanoma cells [5]; [13]) was > 10%.
In the case of altersolanol D, the anti-microbial activity [6] is given as “completely ineffective”.
With `COc1cc(O)c2c(c1)C(=O)C1=C(C2=O)[C@H](O)[C@@H](O)[C@@](C)(O)[C@@H]1O` [Altersolanol A, 7-methoxy-2-methyl-(1R,2S,3R,4S)-1,2,3,4-tetrahydro-1,2,3,4,5-pentahydroxy-anthracene-9,10-dione] the MIC (E. coli; [14]) was 62.5 µg/mL (≈ 186 µM), the MIC [2, 9] was 15.6 µg/mL (≈ 46.4 µM) and the MIC (Staphylococcus epidermis; [10]) was 7.8 µg/mL (≈ 23.2 µM). The MIC (Streptococcus pneumoniae; [11]) was 7.8 µg/mL (≈ 23.2 µM), the MIC [3, 12] was 7.8 µg/mL (≈ 23.2 µM) and the MIC [4] was 7.8 µg/mL (≈ 23.2 µM). For the same compound, the “activity against bacteria and fungi” value (bacteria and fungi) was “the most efficient of the tested substances” and the anti-microbial activity [6] was “anti-microbial activity”.
In the case of `COC1=CC(=O)c2c(O)c3c(c(O)c2C1=O)C[C@](C)(O)[C@H](O)[C@H]3O` [Bostrycin], the MIC (Staphylococcus epidermis; [10]) is reported as 125 µg/mL (≈ 372 µM), the MIC (Streptococcus pneumoniae; [11]) is reported as 62.5 µg/mL (≈ 186 µM) and the MIC [3, 12] is reported as 125 µg/mL (≈ 372 µM).
Compound `COc1cc(O)c2c(c1)C(=O)c1cc(C)c(O)cc1C2=O` [Macrosporin] has an MIC (E. coli; [14]) of 62.5 µg/mL (≈ 220 µM), an MIC (Staphylococcus epidermis; [10]) of 62.5 µg/mL (≈ 220 µM) and an MIC [3, 12] of 62.5 µg/mL (≈ 220 µM).
Work on `COc1cc(O)c(C(=O)O)c(-c2cc(O)c(O)cc2C)c1` [Altenusin] yielded an MIC (E. coli) of 62.5 µg/mL (≈ 215 µM), an MIC ([2]; Enterococcus faecalis) of 62.5 µg/mL (≈ 215 µM) and an MIC (Staphylococcus epidermis; Staphylococcus) of 31.2 µg/mL (≈ 107 µM). It also gave an MIC (Streptococcus pneumoniae; Streptococcus pneumoniae) of 31.2 µg/mL (≈ 107 µM) and an MIC ([3]; Staphylococcus aureus) of 31.2 µg/mL (≈ 107 µM).
For `COc1cc(O)c2c(c1)C(=O)C1=C(C[C@@H](O)[C@@](C)(O)[C@@H]1O)C2=O` [altersolanol C], the anti-microbial activity [6] is given as “anti-microbial activity”.
For alterporriol E, the “activity against bacteria and fungi” value (bacteria and fungi) is listed as “do not show any activity against bacteria and fungi”.
`COc1cc(O)c2c(c1)C(=O)C1=C(C2=O)[C@@H](O)[C@H](OC(C)=O)[C@@](C)(O)[C@@H]1O` [Example 1, (1R,2S,3S,4R)-3-acetoxy-1,2,4,5-tetrahydroxy-7-methoxy-2-methyl-1,2,3,4-tetrahydroanthracene-9,10-dione] showed an MIC (E. coli; [14]) of 125 µg/mL (≈ 330 µM), an MIC [2, 9] of 7.8 µg/mL (≈ 20.6 µM) and an MIC (Klebsiella sp.; read-out: MHK (MIC) KL) of 125 µg/mL (≈ 330 µM). For the same compound, the MIC (Pseudomonas aeruginosa; read-out: MHK (MIC) PS) was 125 µg/mL (≈ 330 µM), the MIC (Staphylococcus epidermis; [10]) was 7.8 µg/mL (≈ 20.6 µM) and the MIC (Streptococcus pneumoniae; [11]) was 7.8 µg/mL (≈ 20.6 µM). For the same compound, the MIC [3, 12] was 7.8 µg/mL (≈ 20.6 µM), the MIC [4] was 62.5 µg/mL (≈ 165 µM) and the inhibition at 1 µg/mL (melanoma cells [5]; 1 μg/ml, 48 h, relative to blank, read-out: inhibition of the number of surviving cells) was > 10%. The inhibition at 10 µg/mL (melanoma cells [5]; [13]) was ~50%, the “surviving cells (in words)” value (melanoma cells [5]; 50 μg/ml, 48 h) was “hardly possible to detect any surviving cells” and the “cytotoxic effectiveness relative to alterporriol I/J” value (melanoma cells [5]; Alamar Blue, melanoma cells) was “at least 10 times”. For the same compound, the “ECIS result (in words)” value [7] was “clearly better results than alterporriol I/J”, the “tumor appearance after 24 hours” value (melanoma cells [8]; 24 hours) was “signs of degeneration” and the “tumor size after 120 hours” value (melanoma cells [8]; 120 hours) was “clearly reduced in size”.
For Alterporriol A + B, the “MHK (MIC) EK” value [2, 9] was 15.6 µg/mL, the “MHK (MIC) SE” value (Staphylococcus epidermis; [10]) was 15.6 µg/mL and the “MHK (MIC) STR” value (Streptococcus pneumoniae; [11]) was 7.8 µg/mL. The “MHK (MIC) MRSA” value [3, 12] was 15.6 µg/mL and the “MHK (MIC) ASP” value [4] was 62.5 µg/mL.
For Indole carbaldehyde (carboxaldehyde), the “MHK (MIC) PS” value (Pseudomonas aeruginosa) was 125 µg/mL and the “MHK (MIC) STR” value (Streptococcus pneumoniae; [11]) was 62.5 µg/mL.
In the case of `COc1cc(O)c2c(c1)C(=O)[C@H]1C[C@](C)(O)[C@H](O)C[C@@H]1[C@H]2O` [Altersolanol J], the “MHK (MIC) EK” value [2, 9] is reported as 31.2 µg/mL, the “MHK (MIC) KL” value (Klebsiella sp.) is reported as 125 µg/mL and the “MHK (MIC) SE” value (Staphylococcus epidermis; [10]) is reported as 62.5 µg/mL. The “MHK (MIC) STR” value (Streptococcus pneumoniae; [11]) was 15.6 µg/mL, the “MHK (MIC) MRSA” value [3, 12] was 62.5 µg/mL and the “MHK (MIC) ASP” value [4] was 125 µg/mL. For the same compound, the “activity against bacteria and fungi” value (bacteria and fungi) was “do not show any activity against bacteria and fungi”.
For altersolanol F, the anti-microbial activity [6] is given as “completely ineffective”.
For altersolanol E, the anti-microbial activity [6] is given as “anti-microbial activity; also recorded: completely ineffective”.
For `COc1cc(O)c2c(c1)C(=O)C1=C(C[C@@H](O)[C@@](C)(O)C1)C2=O` [altersolanol B], the anti-microbial activity [6] is listed as “anti-microbial activity”.
For Macrosporin sulfate, the “MHK (MIC) STR” value (Streptococcus pneumoniae; [11]) was 31.2 µg/mL.
